Measured values: paper PMC12458024, “Stabilizing a Native Fold of Alpha-Synuclein with Short Helix-Constrained Peptides” (JACS Au, 2025)
Entries after “also recorded” stand apart in the source; their conditions may differ. Positions of bridges follow the written chain, without caps; N, C: chain ends. Residues, ends and D or L forms follow the SMILES beside them.

Assays:
[1] = target: T1, αS1–140 (Homo sapiens, UniProt P37840); test: Lipid-induced αS aggregation assay (ThT kinetics); assay type: biochemical; conditions: 100 μM αS1–140, 50 μM ThT, 50 μM DMPS SUVs, 20 mM phosphate pH 6.5, 30 °C; peptide 100 and 500 μM; n = 3
T1 construct: pET21a plasmid encoding human wild-type αS1–140; made in house; host or cells: E. coli BL21 (DE3)
Experimental: Dry DMPS lipid powder was accurately weighed using a Sartorius ultramicro balance and dissolved in 20 mM sodium phosphate buffer (pH 6.5) to a final concentration of 2 mM. The lipid was solubilized by shaking in a 2 mL Eppendorf tube on a Thermomixer compact (Eppendorf) at 45 °C, 1400 rpm for 3 h. The solution was then freeze–thawed five times using dry ice and a thermomixer (45 °C, 500 rpm). Vesicle formation was completed by sonication, using a Bandelin Sonopuls sonicator equipped with a TS102 probe, set to 20% amplitude, for 15 cycles (30 s on/30 s off). Vesicles were freshly prepared on the day of use. The SUVs prepared have an average diameter of approximately 30–40 nm, as characterized by dynamic light scattering (DLS) as previously described. This corresponds to vesicle concentrations in the low micromolar range.
Lipid-induced aggregation experiments were monitored using a CLARIOstar fluorescence microplate reader (BMG Labtech) under quiescent conditions (no shaking) at 30 °C. Experiments were conducted in black, clear-bottom 96-well half-area polystyrene plates with a nonbinding surface (Corning #3881), sealed with aluminum Thermowell sealing tape (Corning #6570). Each well contained 100 μL of reaction volume, run in triplicate, comprising 100 μM αS, 50 μM ThT, 50 μM DMPS (monomeric equivalent), 0.01% sodium azide, and varying concentrations of peptide (0 μM to 1 mM), all in 20 mM phosphate buffer (pH 6.5).
Instrument settings included a focal height of 4.9 mm and a gain of 800, with an excitation filter of 440 ± 15 nm, an emission filter of 480 ± 15 nm, and a 460 nm dichroic cutoff. Readings were collected from the bottom optic using a spiral averaging (4 mm diameter) with 50 flashes per well, and measurements were taken every 1200 s. The outer wells of the plate were not used to avoid evaporation

[2] = Circular dichroism: fractional helicity with and without DMPS SUVs (lipid binding); assay type: physicochemical; conditions: CD, 20 μM peptide, 20 mM phosphate buffer pH 6.5, 30 °C, mean of three independent measurements; for Fractional helicity (fH) with DMPS: 1000 μM DMPS vesicles; for Fractional helicity (fH) no DMPS: no lipid
Experimental: Far UV CD spectra scans were then recorded of the solutions on a Chirascan V100 (Applied Photophysics), at 30 °C, in a 1 mm path length quarts cuvette, scanning from 280–190 nm with a 1 nm bandwidth, averaged over 3 scans and blanked against the solutions containing the relevant DMPS vesicles in 20 mM phosphate buffer (pH 6.5).
Fractional helicity (fH) was calculated according to the equation fH=(θ222−θc)/(θ222∞−θc) where θ222∞ = (−44,000 + 250T)*(1 – k/Nr) and θc = 2220 – 53T. In these equations, the wavelength-dependent constant k = 2.4, Nr = the number of residues, and T is the temperature, 30 °C. ,

[3] = Peptide stability in human serum; assay type: in vitro ADME; conditions: normal human serum, 30 μM peptide, 37 °C, analytical HPLC peak area normalized to t = 0, triplicate; read-out: Peptide remaining intact in human serum at 48 h
Experimental: Serum stability assays were performed in normal human serum. Peptide stocks were initially prepared at 600 μM in H2O, and 75 μL of this stock was added to 1425 μL of normal human serum (Merck), yielding a final concentration of 30 μM. Samples were incubated at 37 °C, and 100 μL aliquots were collected at designated time points (0, 1, 2, 3, 4, 6, 22, 24, and 48 h) and then immediately stored at −80 °C. After all time points, the samples were thawed and mixed with 300 μL of acetonitrile:water (3:1, v/v) by vortexing to ensure complete mixing. Following centrifugation at 14500 rpm for 20 min, 200 μL of the supernatant was analyzed by HPLC using a Phenominex Luna 5 μm C18 100 Å analytical column, eluted with a 0–50% acetonitrile gradient containing 0.1% TFA. Peak areas were integrated and normalized to the 0-h sample. Each peptide was tested in triplicate.

[4] = test system: N2 C. elegans; conditions: dosed at L4, 0–100 μM, day 5 of adulthood
Experimental: The C. elegans strain N2 was used as the control, while the transgenic strain NL5901 (unc-54p::αS::YFP), which expresses αS fused to YFP in the body wall muscle cells, was used to model the PD motility phenotype. Worms were synchronized by bleaching with sodium hypochlorite, and the eggs were resuspended in M9 buffer and incubated overnight at 20 °C with shaking (50 rpm) to hatch. Larvae were then transferred to nematode growth medium (NGM) agar plates seeded with E. coli OP50 as a food source and incubated in the dark at 20 °C until they reached the L4 stage.
L4-stage worms were transferred to fresh NGM agar plates containing 75 μM 5-fluoro-2’deoxyuridine (FUdR), to prevent reproduction, and seeded with E. coli OP50 as a food source. […] Nematodes were incubated in the dark at 20 °C for 5 days. Following incubation, 15 worms per condition were picked using a worm pick and placed in a drop of M9 media on a microscope slide. Movements were recorded immediately for a period of 30 s. For each condition, 5 worms per video were manually scored for the number of body bends per minute. […] A body bend was defined as a full oscillation, where the head returned to a point on the same side.

[5] = test system: SH-SY5Y cells; test: ToxiLight toxicity assay; assay type: cell-based, human; conditions: 0–20 μM RhoB-labeled peptide, 30–36 h, Triton X-100 positive control
Experimental: (§1) SH-SY5Y cells were plated at a density of 5,000 cells well^–1 in a half-area 96-well plate. Twenty-four hours after plating, the media was removed and replaced with media containing 10 or 20 μM of rhodamine-B labeled peptide or the equivalent volume of PBS. Cells were incubated with peptides for a further 30–36 h. As a positive control for cell lysis, 3 wells of cells were treated with 5% Triton-X 100 for 20 min, and then 20 μL of media was harvested from all wells for ToxiLight analysis according to the manufacturer’s instructions (Lonza Biologics PLC, LT07–217). Cells were then washed once with PBS and incubated for 90 min with a 1:10 dilution of AlamarBlue reagent (Invitrogen, DAL1025). Media was harvested and the fluorescence measured according to the manufacturer’s instructions. Cells were then washed twice with PBS and incubated with a 1:12.5 dilution of NucBlue (ThermoFisher Scientific, R37605) and a 1:500 dilution of CellTracker Deep Red (Invitrogen, C34565) in media for a further 30 min. Cells were then washed 2 more times in PBS and imaged.

[6] = circular dichroism; conditions: 20 mM phosphate; pH 6.5; 30 °C; 20 uM
[7] = test system: SH-SY5Y cells; test: Alamar Blue toxicity assay; assay type: cell-based, human; conditions: 0–20 μM RhoB-labeled peptide, 30–36 h, relative to untreated controls
Experimental: as §1

| SMILES | Effect on lipid-induced αS1–140 aggregation (ThT) [1] | Fractional helicity (fH) with DMPS [2] | Fractional helicity (fH) no DMPS [2] | remaining at 48 h, 30 μM [3] | Thrashing rate of wild-type N2 worms [4] | Cytotoxicity, ToxiLight [5] | helicity [6] | Cytotoxicity, Alamar Blue [7] |
| --- | --- | --- | --- | --- | --- | --- | --- | --- |
| CSCC[C@@H]1NC(=O)[C@H](Cc2ccccc2)NC(=O)[C@H](C(C)C)NC(=O)[C@@H](NC(C)=O)CCCCNC(=O)C[C@@H](C(=O)NCC(=O)N[C@@H](CC(C)C)C(=O)N[C@@H](CO)C(=O)N[C@@H](CCCCN)C(=O)N[C@@H](C)C(=O)N[C@@H](CCCCN)C(N)=O)NC1=O [αS2–12(L1)] (Ac-KVFMDGLSKAK-NH2; lactam 1-5) | enhanced αS aggregation | 0.0% | 0.0% | – | – | – | – | – |
| CSCC[C@@H]1NC(=O)[C@@H](NC(=O)[C@@H](NC(=O)[C@H](CC(=O)O)NC(C)=O)C(C)C)CCCCNC(=O)C[C@@H](C(=O)N[C@@H](CO)C(=O)N[C@@H](CCCCN)C(=O)N[C@@H](C)C(=O)N[C@@H](CCCCN)C(N)=O)NC(=O)CNC(=O)[C@H](CCCCN)NC1=O [αS2–12(L3)] (Ac-DVKMKGDSKAK-NH2; lactam 3-7) | most effective inhibition; also recorded: greatest inhibition of αS1–140 aggregation | 2.9% | 14.6% | – | – | – | – | – |
| CSCC[C@H](NC(=O)[C@H](Cc1ccccc1)NC(=O)[C@@H](NC(=O)[C@H](CC(=O)O)NC(C)=O)C(C)C)C(=O)N[C@@H](CCCCN)C(=O)NCC(=O)N[C@H]1CCCCNC(=O)C[C@@H](C(N)=O)NC(=O)[C@H](C)NC(=O)[C@H](CCCCN)NC(=O)[C@H](CO)NC1=O [αS2–12(L7)] (Ac-DVFMKGKSKAD-NH2; lactam 7-11) | enhanced αS aggregation | 16.8% | 15.8% | – | – | – | – | – |
| CSCC[C@H](NC(=O)[C@H](Cc1ccccc1)NC(=O)[C@@H](NC(=O)[C@H](CC(=O)O)NC(C)=O)C(C)C)C(=O)N[C@@H](CCCCN)C(=O)N[C@H]1CCCCNC(=O)C[C@@H](C(=O)N[C@@H](CCCCN)C(N)=O)NC(=O)[C@H](CCCCN)NC(=O)[C@H](CO)NC(=O)[C@H](CC(C)C)NC1=O [αS2–12(L6)] (Ac-DVFMKKLSKDK-NH2; lactam 6-10) | – | – | – | 16% | no change in thrashing rate | No significant toxicity | 31.4% | No significant toxicity |
| CSCC[C@H](NC(=O)[C@H](Cc1ccccc1)NC(=O)[C@@H](NC(=O)[C@H](CC(=O)O)NC(C)=O)C(C)C)C(=O)N[C@H]1CCCCNC(=O)C[C@@H](C(=O)N[C@@H](C)C(=O)N[C@@H](CCCCN)C(N)=O)NC(=O)[C@H](CO)NC(=O)[C@H](CC(C)C)NC(=O)CNC1=O [αS2–12(L5)] (Ac-DVFMKGLSDAK-NH2; lactam 5-9) | – | 3.3% | 28.9% | – | – | – | – | – |
| CSCC[C@H](NC(=O)[C@H](Cc1ccccc1)NC(=O)[C@@H](NC(=O)[C@H](CC(=O)O)NC(C)=O)C(C)C)C(=O)N[C@@H](CCCCN)C(=O)NCC(=O)N[C@@H](CC(C)C)C(=O)N[C@@H](CO)C(=O)N[C@@H](CCCCN)C(=O)N[C@@H](C)C(=O)N[C@@H](CCCCN)C(N)=O (Ac-DVFMKGLSKAK-NH2) | – | – | – | – | – | – | 8.1% | – |
| CSCC[C@@H]1NC(=O)[C@H](Cc2ccccc2)NC(=O)[C@@H](NC(=O)[C@H](CC(=O)O)NC(C)=O)CCCCNC(=O)C[C@@H](C(=O)N[C@@H](CC(C)C)C(=O)N[C@@H](CO)C(=O)N[C@@H](CCCCN)C(=O)N[C@@H](C)C(=O)N[C@@H](CCCCN)C(N)=O)NC(=O)[C@H](CCCCN)NC1=O [αS2–12(L2)] (Ac-DKFMKDLSKAK-NH2; lactam 2-6) | most effective inhibition | 14.5% | 30.9% | – | – | – | – | – |
| CC(=O)N[C@@H](CC(=O)O)C(=O)N[C@H](C(=O)N[C@@H](Cc1ccccc1)C(=O)N[C@H]1CCCCNC(=O)C[C@@H](C(=O)N[C@@H](CCCCN)C(=O)N[C@@H](C)C(=O)N[C@@H](CCCCN)C(N)=O)NC(=O)[C@H](CC(C)C)NC(=O)CNC(=O)[C@H](CCCCN)NC1=O)C(C)C [αS2–12(L4)] (Ac-DVFKKGLDKAK-NH2; lactam 4-8) | enhanced αS aggregation | 27.7% | 12.4% | – | – | – | – | – |
